In patent publication US20210107874A1, “PHARMACEUTICAL FORMULATION OF CROTONYLAMINOPYRIDINE SALT” (priority 2017, published 2021):
Several values for one entry are separate records, joined by “and”; a condition that tells them apart may be missing. Equal entries are not always repeated. Where two headings read alike, the source gives them in different places.

Experiment: PK studies of formulations, plasma by HPLC-MS/MS
Format: in vivo
Conditions: Cattle
Procedure: The following formulations were prepared and administered to animals. Blood samples were collected at pre-defined time points and the amount of compound present in plasma at the time of sampling was determined by HPLC-MS/MS. Pharmacokinetic parameters were then calculated: Cmax, Tmax, Tlast, AUC. [table]

[1] = FormO50 (L-tartaric acid, NaOH up to pH 4.4, water), SC, 1 mg/kg
[2] = FormO50 (L-tartaric acid, NaOH up to pH 4.4, water), SC, 5 mg/kg
[3] = FormO100 (L-tartaric acid, NaOH up to pH 4.4, water), SC, 1.5 mg/kg

Tlast (FormO50 (L-tartaric acid, NaOH up to pH 4.4, water), SC, 0.5 mg/kg): 4.4 h | Tlast (FormO50 (L-tartaric acid, NaOH up to pH 4.4, water), SC, 0.75 mg/kg): 5.6 h | AUC [1]: 1149 ng·h/mL and 969 ng·h/mL | Cmax [1]: 705 ng/mL and 815 ng/mL | Tlast [1]: 6 h and 7 h and 6.8 h | AUC [2]: 8817 ng·h/mL | Cmax [2]: 5975 ng/mL | Tlast [2]: 8 h | Tlast (FormO50 (L-tartaric acid, NaOH up to pH 4.4, water), SC, 10 mg/kg): 12 h | AUC [3]: 1422 ng·h/mL | Cmax [3]: 862 ng/mL | Tlast [3]: 10.0 h and 8.5 h | Tmax [3]: 22.8 min | Tlast (FormU100 (L-tartaric acid, propylene glycol 400 mg, benzylalcohol, water), SC, 1.5 mg/kg): 10.0 h | Tlast (FormV100 (L-tartaric acid, propylene glycol 500 mg, benzylalcohol, water), SC, 1.5 mg/kg): 10.0 h | Tlast (FormW100 (L-tartaric acid, propylene glycol 300 mg, benzylalcohol, water), SC, 1.5 mg/kg): 9.5 h | AUC (bovine, plasma, sc, 0.5 mg/kg, pH 4.4, FormO50 (L-tartaric acid, NaOH up to pH 4.4, water), 0.5 mg/kg, read-out: AUC): 371 ng·h/mL | Cmax (bovine, plasma, sc, 0.5 mg/kg, pH 4.4, FormO50 (L-tartaric acid, NaOH up to pH 4.4, water), 0.5 mg/kg, read-out: Cmax): 305 ng/mL | Tmax (bovine, plasma, sc, 0.5 mg/kg, pH 4.4, FormO50 (L-tartaric acid, NaOH up to pH 4.4, water), 0.5 mg/kg, read-out: Tmax): 18 min | AUC (bovine, plasma, sc, 0.75 mg/kg, pH 4.4, FormO50 (L-tartaric acid, NaOH up to pH 4.4, water), 0.75 mg/kg, read-out: AUC): 616 ng·h/mL | Cmax (bovine, plasma, sc, 0.75 mg/kg, pH 4.4, FormO50 (L-tartaric acid, NaOH up to pH 4.4, water), 0.75 mg/kg, read-out: Cmax): 397 ng/mL | Tmax (bovine, plasma, sc, 0.75 mg/kg, pH 4.4, FormO50 (L-tartaric acid, NaOH up to pH 4.4, water), 0.75 mg/kg, read-out: Tmax): 30 min | AUC (bovine, plasma, sc, 1 mg/kg, pH 4.4, FormO50 (L-tartaric acid, NaOH up to pH 4.4, water), 1 mg/kg, read-out: AUC): 973 ng·h/mL | Cmax (bovine, plasma, sc, 1 mg/kg, pH 4.4, FormO50 (L-tartaric acid, NaOH up to pH 4.4, water), 1 mg/kg, read-out: Cmax): 521 ng/mL | Tmax (bovine, plasma, sc, 1 mg/kg, pH 4.4, FormO50 (L-tartaric acid, NaOH up to pH 4.4, water), 1 mg/kg, read-out: Tmax): 36 min | AUC (bovine, plasma, sc, 1.5 mg/kg, FormU100 (L-tartaric acid, propylene glycol 400 mg, benzylalcohol, water), 1.5 mg/kg, read-out: AUC): 1680 ng·h/mL | Cmax (bovine, plasma, sc, 1.5 mg/kg, FormU100 (L-tartaric acid, propylene glycol 400 mg, benzylalcohol, water), 1.5 mg/kg, read-out: Cmax): 593 ng/mL | Tmax (bovine, plasma, sc, 1.5 mg/kg, FormU100 (L-tartaric acid, propylene glycol 400 mg, benzylalcohol, water), 1.5 mg/kg, read-out: Tmax): 37.8 min | AUC (bovine, plasma, sc, 1.5 mg/kg, FormV100 (L-tartaric acid, propylene glycol 500 mg, benzylalcohol, water), 1.5 mg/kg, read-out: AUC): 1520 ng·h/mL | Cmax (bovine, plasma, sc, 1.5 mg/kg, FormV100 (L-tartaric acid, propylene glycol 500 mg, benzylalcohol, water), 1.5 mg/kg, read-out: Cmax): 540 ng/mL | Tmax (bovine, plasma, sc, 1.5 mg/kg, FormV100 (L-tartaric acid, propylene glycol 500 mg, benzylalcohol, water), 1.5 mg/kg, read-out: Tmax): 105 min | AUC (bovine, plasma, sc, 1.5 mg/kg, FormW100 (L-tartaric acid, propylene glycol 300 mg, benzylalcohol, water), 1.5 mg/kg, read-out: AUC): 1520 ng·h/mL | Cmax (bovine, plasma, sc, 1.5 mg/kg, FormW100 (L-tartaric acid, propylene glycol 300 mg, benzylalcohol, water), 1.5 mg/kg, read-out: Cmax): 743 ng/mL | Tmax (bovine, plasma, sc, 1.5 mg/kg, FormW100 (L-tartaric acid, propylene glycol 300 mg, benzylalcohol, water), 1.5 mg/kg, read-out: Tmax): 52.8 min | AUC (bovine, plasma, sc, 1.5 mg/kg, pH 4.4, FormO100 (L-tartaric acid, NaOH up to pH 4.4, water), 1.5 mg/kg, read-out: AUC): 1680 ng·h/mL | Cmax (bovine, plasma, sc, 1.5 mg/kg, pH 4.4, FormO100 (L-tartaric acid, NaOH up to pH 4.4, water), 1.5 mg/kg, read-out: Cmax): 1010 ng/mL | Tmax (bovine, plasma, sc, 1.5 mg/kg, pH 4.4, FormO100 (L-tartaric acid, NaOH up to pH 4.4, water), 1.5 mg/kg, read-out: Tmax): 18.6 min | AUC (bovine, plasma, sc, 5 mg/kg, pH 4.4, FormO50 (L-tartaric acid, NaOH up to pH 4.4, water), 5 mg/kg, read-out: AUC): 7890 ng·h/mL | Cmax (bovine, plasma, sc, 5 mg/kg, pH 4.4, FormO50 (L-tartaric acid, NaOH up to pH 4.4, water), 5 mg/kg, read-out: Cmax): 3310 ng/mL | Tmax (bovine, plasma, sc, 5 mg/kg, pH 4.4, FormO50 (L-tartaric acid, NaOH up to pH 4.4, water), 5 mg/kg, read-out: Tmax): 24 min | AUC (bovine, plasma, sc, 10 mg/kg, pH 4.4, FormO50 (L-tartaric acid, NaOH up to pH 4.4, water), 10 mg/kg, read-out: AUC): 18800 ng·h/mL | Cmax (bovine, plasma, sc, 10 mg/kg, pH 4.4, FormO50 (L-tartaric acid, NaOH up to pH 4.4, water), 10 mg/kg, read-out: Cmax): 5930 ng/mL | Tmax (bovine, plasma, sc, 10 mg/kg, pH 4.4, FormO50 (L-tartaric acid, NaOH up to pH 4.4, water), 10 mg/kg, read-out: Tmax): 36 min
Compound: COc1cc(NCCNC(=O)/C=C/C(C)(F)F)ccn1 [Compound 5]
